Assay [1] deals with DNA gyrase (Escherichia coli). In words: Inhibition effect on Escherichia coli Wild Type DNA gyrase Supercoiling activity.
Assay [2] concerns the target DNA gyrase (Escherichia coli). In words: Inhibition of Escherichia coli Quinolone resistant gyrase Supercoiling activity.

pIC50: −log10 of the molar value.

As a reminder, the pIC50 is the negative decadic logarithm of the IC50, by convention in mol/L. As for `N[C@H]1CCCN(c2c(F)cc3c(=O)c(C(=O)O)cn(C4CC4)c3c2F)C1`, the figures for the pIC50 in assay [1] and in assay [2] were 5.06 and 4.15, respectively.

Values taken from BindingDB's records for doi:10.1021/jm030272n (Procter & Gamble Pharmaceuticals, 2003).
